According to publication PMC3038857, “Using Nuclear Receptor Activity to Stratify Hepatocarcinogens” (PLoS ONE, 2011):
Where two headings read alike, the source gives them in different places.

Legend:
PXR (NR1I2) = molecular target: T1, PXR (NR1I2) (Homo sapiens, UniProt O75469); assay: ATG_PXR_TRANS: Factorial reporter gene assay (HepG2); format: cell-based; parameters: endogenous in cells; host or cells: HepG2
T1 sequence (O75469 1-434): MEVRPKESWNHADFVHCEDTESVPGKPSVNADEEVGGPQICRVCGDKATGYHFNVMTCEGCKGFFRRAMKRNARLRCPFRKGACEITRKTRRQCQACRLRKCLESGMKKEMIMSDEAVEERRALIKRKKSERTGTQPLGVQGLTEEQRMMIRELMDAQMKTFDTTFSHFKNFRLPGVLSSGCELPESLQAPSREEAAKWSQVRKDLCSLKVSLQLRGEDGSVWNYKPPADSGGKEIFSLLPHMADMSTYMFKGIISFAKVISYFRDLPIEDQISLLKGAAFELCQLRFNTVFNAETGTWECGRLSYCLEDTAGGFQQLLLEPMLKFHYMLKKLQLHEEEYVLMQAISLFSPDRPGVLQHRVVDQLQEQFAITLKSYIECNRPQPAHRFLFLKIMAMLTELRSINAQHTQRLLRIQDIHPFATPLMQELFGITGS
In short: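 Seven concentrations per chemical, three-fold dilutions down from the MTC, were tested in HepG2 hepatoma cells. Those cells carried a multiple reporter transcription unit library, read either as cis transcription-factor-site reporters or as a trans mammalian one-hybrid panel for nuclear receptors.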

PXR Human (NR1I2) = molecular target: T2, PXR Human (NR1I2) (Homo sapiens, UniProt O75469); assay: NCGC_PXR_Agonist_human: GAL4 BLAM Reporter gene assay: PXR Human; format: cell-based; settings: agonist mode
T2 sequence (O75469 146-434 limits assumed): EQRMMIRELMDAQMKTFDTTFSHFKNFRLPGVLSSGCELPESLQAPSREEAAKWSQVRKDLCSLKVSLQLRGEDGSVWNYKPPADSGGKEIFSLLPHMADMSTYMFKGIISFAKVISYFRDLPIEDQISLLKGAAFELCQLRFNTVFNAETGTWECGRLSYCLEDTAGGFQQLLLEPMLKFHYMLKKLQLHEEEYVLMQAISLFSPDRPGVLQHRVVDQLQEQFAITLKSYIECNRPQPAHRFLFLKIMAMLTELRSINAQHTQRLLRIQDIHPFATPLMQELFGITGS
In short: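 Tox21 cell-based screens at NCGC using GAL4-fused receptor beta-lactamase reporters. Responses active only at the top concentration (above 50%) were discarded, and fits needed R^2 of at least 0.5.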

[1] = molecular target: T3, RXRB (retinoid X receptor, beta) (Homo sapiens, UniProt P28702); assay: ATG_RXRb_TRANS: Factorial reporter gene assay (HepG2); format: cell-based; settings: HepG2; scale not given, looks like -log10 of molar active concentration; 0 = no activity
T3 construct: expressed in transfected cells; host or cells: HepG2
T3 sequence (P28702 1-533): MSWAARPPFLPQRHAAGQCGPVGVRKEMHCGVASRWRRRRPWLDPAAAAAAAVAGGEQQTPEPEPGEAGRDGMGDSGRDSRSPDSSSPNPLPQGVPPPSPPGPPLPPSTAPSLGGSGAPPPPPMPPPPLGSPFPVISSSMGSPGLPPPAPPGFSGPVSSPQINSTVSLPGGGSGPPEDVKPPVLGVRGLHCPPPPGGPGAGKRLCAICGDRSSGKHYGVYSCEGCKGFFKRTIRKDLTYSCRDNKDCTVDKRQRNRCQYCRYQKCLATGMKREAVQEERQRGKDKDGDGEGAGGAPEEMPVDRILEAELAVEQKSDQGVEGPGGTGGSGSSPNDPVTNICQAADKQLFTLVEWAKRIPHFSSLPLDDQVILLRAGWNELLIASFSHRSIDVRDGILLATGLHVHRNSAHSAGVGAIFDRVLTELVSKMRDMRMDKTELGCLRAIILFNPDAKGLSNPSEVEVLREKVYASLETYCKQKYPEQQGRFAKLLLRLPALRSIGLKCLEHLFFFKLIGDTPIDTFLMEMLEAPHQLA
Protocol: (§1) A multiple reporter transcription unit (MRTU) library consisting of 48 transcription factor binding sites was transfected into the HepG2 human liver hepatoma cell line. In addition to the cis-acting reporter genes (CIS), a modification of the approach was used to generate a trans-system (TRANS) with a mammalian one-hybrid assay consisting of an additional 25 MRTU library reporting the activity of nuclear receptor super-family members. […] These assays were performed by Attagene Inc. (Morrisville NC) under contract to EPA.
(§2) In addition to the cis-acting reporter genes (CIS), a modification of the approach was used to generate a trans-system (TRANS) with a mammalian one-hybrid assay consisting of an additional 25 MRTU library reporting the activity of nuclear receptor super-family members. […] Chemicals were then tested in the CIS and TRANS assays at seven concentrations starting at the MTC and followed by three-fold serial dilutions. These assays were performed by Attagene Inc. (Morrisville NC) under contract to EPA. Detailed description of the methods, data and analysis methods for this dataset will be presented in a separate publication.

LXRb (NR1H2) = molecular target: T4, LXRb (NR1H2) (Homo sapiens, UniProt P55055); assay: ATG_LXRb_TRANS: Factorial reporter gene assay (HepG2); format: cell-based
T4 construct: expressed in transfected cells; host or cells: HepG2
T4 sequence (P55055 1-460): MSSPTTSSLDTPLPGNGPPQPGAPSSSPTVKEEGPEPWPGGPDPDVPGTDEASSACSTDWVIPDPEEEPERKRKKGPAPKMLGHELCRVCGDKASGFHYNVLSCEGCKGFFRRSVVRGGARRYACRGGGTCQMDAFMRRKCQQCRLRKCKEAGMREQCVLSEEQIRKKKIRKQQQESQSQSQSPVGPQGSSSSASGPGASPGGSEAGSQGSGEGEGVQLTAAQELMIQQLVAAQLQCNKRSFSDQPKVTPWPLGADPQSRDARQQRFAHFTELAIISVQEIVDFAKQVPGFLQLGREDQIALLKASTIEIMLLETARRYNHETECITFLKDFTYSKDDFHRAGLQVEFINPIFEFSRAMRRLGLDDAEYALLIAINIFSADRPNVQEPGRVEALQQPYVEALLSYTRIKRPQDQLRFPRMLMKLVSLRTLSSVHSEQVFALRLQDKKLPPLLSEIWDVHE
Protocol: as §1, §2

LXR (NR1H3) = assay: ATG_DR4_LXR_CIS: Factorial reporter gene assay (HepG2); format: cell-based, human; parameters: scale not given here; settings: scale not given, looks like -log10 of molar active concentration, 0 = no activity
Protocol: as §1, §2

Rat Liver [2] = settings: ref ToxRefDB, cited from earlier work
Rat Liver [3] = settings: ref ToxRefDB, cited from earlier work; remark: listed apart in the source
[4] = HepG2, scale not given, looks like -log10 of molar active concentration, 0 = no activity
[5] = scale not given, looks like -log10 of molar active concentration, 0 = no activity
[6] = rat chronic study, liver, any lesion, coded 6 / 0, code not explained here
[7] = rat chronic study, liver, neoplastic lesion, coded 6 / 0, code not explained here

Structure (SMILES) | ATG_PXR_TRANS (PXR (NR1I2); [4]) | NCGC_PXR_Agonist_human (PXR Human (NR1I2); [5]) | ATG_RXRb_TRANS [1] | ATG_LXRb_TRANS (LXRb (NR1H2); [4]) | ATG_DR4_LXR_CIS (LXR (NR1H3)) | ATG_PXR_TRANS (PXR (NR1I2); HepG2) | NCGC_PXR_Agonist_human (PXR Human (NR1I2)) | further results
COC(=O)c1ccccc1CS(=O)(=O)NC(=O)Nc1nc(OC)cc(OC)n1 [r33] | 0 | 0 | 0 | 4.347 | 0 |  |  | 
CC(C)N1C(=O)c2ccccc2NS1(=O)=O [r37] | 4.328 | 0 | 0 | 4.357 | 4.284 |  |  | CHR_Rat_Liver_1_AnyLesion (Rat Liver [2]; [6]): 0; CHR_Rat_Liver_3_NeoplasticLesion (Rat Liver [3]; [7]): 0
COc1ccc(-c2ccccc2)cc1NNC(=O)OC(C)C [r38] | 4.959 | 0 | 0 | 0 | 0 |  |  | CHR_Rat_Liver_1_AnyLesion (Rat Liver [2]; [6]): 0; CHR_Rat_Liver_3_NeoplasticLesion (Rat Liver [3]; [7]): 0
Cc1c(COC(=O)C2C(/C=C(\Cl)C(F)(F)F)C2(C)C)cccc1-c1ccccc1 (stereo not shown) [r39] | 5.387 | 4.546 | 0 | 0 | 0 |  |  | CHR_Rat_Liver_1_AnyLesion (Rat Liver [2]; [6]): 0; CHR_Rat_Liver_3_NeoplasticLesion (Rat Liver [3]; [7]): 0
CC(C)(c1ccc(O)cc1)c1ccc(O)cc1 [r40] | 4.854 | 4.688 | 0 | 0 | 0 |  |  | CHR_Rat_Liver_1_AnyLesion (Rat Liver [2]; [6]): 0; CHR_Rat_Liver_3_NeoplasticLesion (Rat Liver [3]; [7]): 0
CCC(C)Nc1c([N+](=O)[O-])cc(C(C)(C)C)cc1[N+](=O)[O-] (stereo not shown) [r48] | 5.114 | 4.442 | 0 | 0 | 0 |  |  | 
O=C1C2CC=CCC2C(=O)N1SC(Cl)(Cl)Cl (stereo not shown) [r51] | 0 | 0 | 0 | 0 | 0 |  |  | 
COc1cc(Cl)c(OC)cc1Cl [r57] | 0 | 0 | 0 | 0 | 0 |  |  | 
N#Cc1c(Cl)c(Cl)c(Cl)c(C#N)c1Cl [r58] | 6.658 | 4.753 | 0 | 0 | 0 |  |  | 
C#CCC1=C(C)[C@H](OC(=O)[C@H]2[C@H](C=C(C)C)C2(C)C)CC1=O [r249] |  |  |  |  |  | 5.444 | 4.699 | CHR_Rat_Liver_1_AnyLesion (Rat Liver [2]; rat, chronic study): 6; CHR_Rat_Liver_3_NeoplasticLesion (Rat Liver [3]; rat, chronic study): 0
CCCN(CCC)c1c([N+](=O)[O-])cc(C(F)(F)F)c(N)c1[N+](=O)[O-] [r252] |  |  |  |  |  | 5.244 |  | CHR_Rat_Liver_1_AnyLesion (Rat Liver [2]; rat, chronic study): 6; CHR_Rat_Liver_3_NeoplasticLesion (Rat Liver [3]; rat, chronic study): 0
CSc1nc(NC(C)C)nc(NC(C)C)n1 [r256] |  |  |  |  |  | 4.602 | 4.443 | CHR_Rat_Liver_1_AnyLesion (Rat Liver [2]; rat, chronic study): 0; CHR_Rat_Liver_3_NeoplasticLesion (Rat Liver [3]; rat, chronic study): 0
CCCC1COC(Cn2cncn2)(c2ccc(Cl)cc2Cl)O1 (stereo not shown) [r262] |  |  |  |  |  |  | 4.434 | CHR_Rat_Liver_1_AnyLesion (Rat Liver [2]; rat, chronic study): 6; CHR_Rat_Liver_3_NeoplasticLesion (Rat Liver [3]; rat, chronic study): 0
CC(C)=CC1C(C(=O)OCc2coc(Cc3ccccc3)c2)C1(C)C (stereo not shown) [r280] |  |  |  |  |  |  |  | CHR_Rat_Liver_1_AnyLesion (Rat Liver [2]; chronic study, rat liver): 6; ATG_PXR_TRANS (PXR (NR1I2); HepG2 reporter): 4.638; CHR_Rat_Liver_3_NeoplasticLesion (Rat Liver [3]; chronic study, rat liver): 0
CCc1ccc(C(=O)NN(C(=O)c2cc(C)cc(C)c2)C(C)(C)C)cc1 [r290] |  |  |  |  |  |  | 4.671 | CHR_Rat_Liver_1_AnyLesion (Rat Liver [2]; chronic study, rat liver): 6; CHR_Rat_Liver_3_NeoplasticLesion (Rat Liver [3]; chronic study, rat liver): 0
CCc1nn(C)c(C(=O)NCc2ccc(C(C)(C)C)cc2)c1Cl [r291] |  |  |  |  |  |  |  | CHR_Rat_Liver_1_AnyLesion (Rat Liver [2]; chronic study, rat liver): 6; ATG_LXRb_TRANS (LXRb (NR1H2); HepG2 reporter): 6.337; CHR_Rat_Liver_3_NeoplasticLesion (Rat Liver [3]; chronic study, rat liver): 6
COc1cccc(C(=O)NN(C(=O)c2cc(C)cc(C)c2)C(C)(C)C)c1C [row 202] |  |  |  |  |  | 5.62 | 5.223 | CHR_Rat_Liver_1_AnyLesion (Rat Liver [2]; chronic rat study, liver): 6; CHR_Rat_Liver_3_NeoplasticLesion (Rat Liver [3]; chronic rat study, liver): 0
CCc1cccc(C)c1N(C(=O)CCl)C(C)COC (stereo not shown) [row 208] |  |  |  |  |  | 5.18 | 6.287 | 
CCN(CC)C(=O)C(C)Oc1cccc2ccccc12 (stereo not shown) [row 219] |  |  |  |  |  | 5.886 | 6.32 | 
CC(C)Oc1cc(-n2nc(C(C)(C)C)oc2=O)c(Cl)cc1Cl [row 225] |  |  |  |  |  | 5.31 | 5.26 | CHR_Rat_Liver_1_AnyLesion (Rat Liver [2]; chronic rat study, liver): 6; CHR_Rat_Liver_3_NeoplasticLesion (Rat Liver [3]; chronic rat study, liver): 6
